Data: patent US20170121319A1, “Herbicidal Compounds” (Syngenta Participations AG, priority 2014, published 2017)

Key:
Assay type in all cases: in vivo
Design in all cases: key: 5=total damage to plant; 0=no damage to plant
[1] = test system: AMARE = Amaranthus retroflexus; assay: Pre-emergence herbicidal activity, glasshouse pot test
Procedure: (§1) Seeds of a variety of test species were sown in standard soil in pots. After cultivation for one day (pre-emergence) under controlled conditions in a glasshouse (at 24/16° C., day/night; 14 hours light; 65% humidity), the plants were sprayed with an aqueous spray solution derived from the formulation of the technical active ingredient in acetone/water (50:50) solution containing 0.5% Tween 20 (polyoxyethelyene sorbitan monolaurate, CAS RN 9005-64-5). The test plants were then grown in a glasshouse under controlled conditions (at 24/16° C., day/night; 14 hours light; 65% humidity) and watered twice daily. After 13 days, the test was evaluated (5=total damage to plant; 0=no damage to plant). Pre- and post-emergence testing was carried out as detailed above on the compounds A1, A2, A4 and A5 and their respective S-enantiomers.

[2] = test system: ECHCG = Echinochloa crus-galli; assay: as above
Procedure: as §1

[3] = test system: ZEAMX = Zea mays; assay: as above
Procedure: as §1

[4] = test system: LOLPE; assay: as above
Procedure: as §1

[5] = test system: SETFA = Setaria faberi; assay: as above; settings: for SEFTA damage score (0-5): comparison of enantiomers; for SETFA damage score (0-5): 1000 g/Ha, evaluated after 13 days
Procedure: as §1

[6] = test system: ABUTH = Abutilon theophrasti; assay: as above
Procedure: as §1

[7] = test system: AMARE = Amaranthus retroflexus; assay: Post-emergence herbicidal activity, glasshouse pot test
Procedure: (§2) Seeds of a variety of test species were sown in standard soil in pots. After 8 days cultivation (post-emergence) under controlled conditions in a glasshouse (at 24/16° C., day/night; 14 hours light; 65% humidity), the plants were sprayed with an aqueous spray solution derived from the formulation of the technical active ingredient in acetone/water (50:50) solution containing 0.5% Tween 20 (polyoxyethelyene sorbitan monolaurate, CAS RN 9005-64-5). The test plants were then grown in a glasshouse under controlled conditions (at 24/16° C., day/night; 14 hours light; 65% humidity) and watered twice daily. After 13 days, the test was evaluated (5=total damage to plant; 0=no damage to plant). Pre- and post-emergence testing was carried out as detailed above on the compounds A1, A2, A4 and A5 and their respective S-enantiomers.

[8] = test system: ECHCG = Echinochloa crus-galli; assay: as above
Procedure: as §2

[9] = test system: ZEAMX = Zea mays; assay: as above
Procedure: as §2

[10] = test system: LOLPE; assay: as above
Procedure: as §2

[11] = test system: SETFA = Setaria faberi; assay: as above; settings: for SEFTA damage score (0-5): comparison of enantiomers; for SETFA damage score (0-5): 1000 g/Ha, evaluated after 13 days
Procedure: as §2

[12] = test system: ABUTH = Abutilon theophrasti; assay: as above
Procedure: as §2

[13] = comparison of enantiomers, 62.5 g/Ha
[14] = comparison of enantiomers, 250 g/Ha
[15] = 1000 g/Ha, evaluated after 13 days

SMILES	AMARE damage score (0-5) [1, 13]	AMARE damage score (0-5) [1, 14]	ECHCG damage score (0-5) [2, 13]	ECHCG damage score (0-5) [2, 14]	ZEAMX damage score (0-5) [3, 13]	ZEAMX damage score (0-5) [3, 14]	LOLPE damage score (0-5) [4, 13]	SEFTA damage score (0-5) ([5]; 250 g/Ha)	ABUTH damage score (0-5) [6, 13]	ABUTH damage score (0-5) [6, 14]	AMARE damage score (0-5) [7, 13]	AMARE damage score (0-5) [7, 14]	ECHCG damage score (0-5) [8, 13]	ECHCG damage score (0-5) [8, 14]	ZEAMX damage score (0-5) [9, 14]	LOLPE damage score (0-5) [10, 13]	LOLPE damage score (0-5) [10, 14]	SEFTA damage score (0-5) ([11]; 62.5 g/Ha)	ABUTH damage score (0-5) [12, 13]	ABUTH damage score (0-5) [12, 14]	further results
CCO[C@H]1C(O)N(c2cc(C(C)(C)C)on2)C(=O)N1C (single isomer, unassigned) [A2 S-enantiomer, reference compound]	5	5	0	3	1	1	1	0	1	1	5	5	0	1	1	0	1	0	1	1	–
CO[C@@H]1C(O)N(c2cc(C(C)(C)C)on2)C(=O)N1C (stereo partly drawn) [Example A1]	5	5	5	5	4	5	1	5	4	2	5	5	5	5	5	5	5	5	2	5	AMARE damage score (0-5) [1, 15]: 5; ECHCG damage score (0-5) [2, 15]: 5; ZEAMX damage score (0-5) [3, 15]: 3; LOLPE damage score (0-5) [4, 15]: 5; LOLPE damage score (0-5) [4, 14]: 5; SETFA damage score (0-5) [5]: 5; SEFTA damage score (0-5) ([5]; 62.5 g/Ha): 4; ABUTH damage score (0-5) [6, 15]: 5; AMARE damage score (0-5) [7, 15]: 5; ECHCG damage score (0-5) [8, 15]: 5; ZEAMX damage score (0-5) [9, 15]: 5; ZEAMX damage score (0-5) [9, 13]: 5; LOLPE damage score (0-5) [10, 15]: 5; SETFA damage score (0-5) [11]: 5; SEFTA damage score (0-5) ([11]; 250 g/Ha): 5; ABUTH damage score (0-5) [12, 15]: 5
COC[C@@H]1C(O)N(c2cc(C(C)(C)C)on2)C(=O)N1C (stereo partly drawn) [Example A4, (4R)-1-(5-tert-butylisoxazol-3-yl)-5-hydroxy-4-(methoxymethyl)-3-methyl-imidazolidin-2-one]	5	5	1	5	0	4	0	5	1	3	5	5	0	5	5	1	5	1	1	5	AMARE damage score (0-5) [1, 15]: 5; ECHCG damage score (0-5) [2, 15]: 5; ZEAMX damage score (0-5) [3, 15]: 3; LOLPE damage score (0-5) [4, 15]: 5; LOLPE damage score (0-5) [4, 14]: 5; SETFA damage score (0-5) [5]: 4; ABUTH damage score (0-5) [6, 15]: 5; AMARE damage score (0-5) [7, 15]: 5; ECHCG damage score (0-5) [8, 15]: 5; ZEAMX damage score (0-5) [9, 15]: 5; LOLPE damage score (0-5) [10, 15]: 5; SETFA damage score (0-5) [11]: 5; SEFTA damage score (0-5) ([11]; 250 g/Ha): 5; ABUTH damage score (0-5) [12, 15]: 5
